Measurements taken from patent US20190327974A1, “SYNERGISTS FOR IMPROVED PESTICIDES” (priority 2017, published 2019).

Columns and labels:
[1] = test system: Myzus persicae (Green peach aphid); assay: CPE combined with boronic acid derivatives on small broad bean leaves; type: in vivo; conditions: for toxicity of the boronic acid derivative alone (in words): ANOVAs followed by Newman-Keuls tests, threshold 5%; for insecticidal efficacy of CPE on addition of the compound (in words): CPE at 2.8 g a.i./ha and 5.6 g a.i./ha; for Percentage of efficacy: boronic acid, where present, 0.2 mg/ml
Description: […] The treatment was performed with an agricultural nozzle (300 L per hectare) […]. A non-treated control condition were also evaluated in parallel. Statistical analysis of the data was then performed. When the leaves were totally dry, 3 leaves were sampled and infested with 3 wingless adults of M. persicae per leaf fragment.
• T+1 (DAT 1)—One day later the number of adults remaining on the leaves was counted. • T+3 (DAT 3)—3 days after treatment the aphid population was estimated; • T+7 (DAT 7)—7 days after treatment the development of aphid population was estimated.
3 bean leaves fragments per microbox*4 microbox per condition (1 condition is 1 formulation at 1 dose)*9 adult aphids per microbox*4 insecticides (3 chlorpyrifos derivates+clorpyrifos alone)*4 rates+2 controls (1 reference insecticide formulation at one dose and non-treated)*3 assessments timings (DAT+1, DAT+3 and DAT+7).

[2] = molecular target: Culex quinquefasciatus CBE (Culex quinquefasciatus, UniProt Q23734); assay: Inhibition of insect CBEs, 4-NPB substrate; type: biochemical; conditions: n=3
Description: (§1) Assays were performed with 4-NPB as the substrate.

[3] = molecular target: Aedes aegypti CBE; assay: Inhibition of insect CBEs, 4-NPB substrate; type: biochemical; conditions: n=3
Description: as §1

[4] = molecular target: Anopheles gambiae CBE; assay: Inhibition of insect CBEs, 4-NPB substrate; type: biochemical; conditions: n=3
Description: as §1

[5] = molecular target: bacterial AmpC β-lactamase (Escherichia coli, UniProt P00811); assay: AmpC β-lactamase selectivity; type: biochemical
Description: (§2) To characterize the selectivity of boronic acids 1 to 5, they were assayed against AChE, the target of OP and carbamate insecticides (Table 1) as well as trypsin and bacterial AmpC β-lactamase. […] The toxicity of the hits against two human cell lines was further assessed.
(§3) To characterize the selectivity of boronic acids 1 to 5, they were assayed against the target of OP insecticides, AChE, as well as trypsin and bacterial AmpC β-lactamase (Table 1). AChE and αE7 are homologous, sharing the α/β-hydrolase fold and the same catalytic machinery, however the topology of their binding pockets is dissimilar (Jackson, C. J. et al. Structure and function of an insect α-carboxylesterase (αEsterase7) associated with insecticide resistance. Proc. Natl. Acad. Sci. U.S.A. 110, 10177-82 (2013) and Correy, G. J. et al. Mapping the Accessible Conformational Landscape of an Insect Carboxylesterase Using Conformational Ensemble Analysis and Kinetic Crystallography. Structure 24, 1-11 (2016).). Both trypsin and AmpC β-lactamase contain an activated serine nucleophile and oxyanion hole, however trypsin contains a serine-histidine-aspartic acid (Hedstrom, L. Serine protease mechanism and specificity. Chem. Rev. 102, 4501-4523 (2002).) while AmpC β-lactamase contains a serine-tyrosine-lysine catalytic triad (Dubus, A., et al. The roles of residues Tyr150, Glu272, and His314 in class C β-lactamases. Proteins Struct. Funct. Genet. 25, 473-485 (1996).).

[6] = molecular target: T1, Trypsin (Bos taurus, UniProt P00760); assay: Trypsin selectivity; type: biochemical
T1 construct: gene PRSS1
T1 sequence (P00760 24-246): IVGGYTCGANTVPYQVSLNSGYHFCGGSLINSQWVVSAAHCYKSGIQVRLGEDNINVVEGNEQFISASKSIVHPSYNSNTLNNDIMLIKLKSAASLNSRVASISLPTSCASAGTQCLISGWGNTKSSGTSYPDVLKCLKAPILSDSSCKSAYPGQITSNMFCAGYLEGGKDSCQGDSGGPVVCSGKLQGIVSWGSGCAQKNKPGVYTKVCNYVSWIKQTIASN
Description: as §2, §3

[7] = test system: HB-2 and MDA-MB-231 human cell lines; assay: Cell toxicity, two human cell lines HB-2 and MDA-MB-231; type: cell-based; conditions: 48 h, up to 100 μM
Description: FIG. 13 depicts that boronic acids show little cell toxicity. Compounds 1-5 as well as 3.9 and 3.10 were incubated for 48 h with two different human cell lines HB-2 and MDA-MB-231 at 7 concentrations up to 100 μM. Cell viability was measured after 48 h using Cell Titer Glo assay.
A seven-point, two-fold dose response series, with a 100 uM as the upper limit and a DMSO-only control point was generated using an Echo 550 liquid handler (Labcyte Inc.) in 384-well plates. Subsequently, the human breast cell lines MDA-MB-231 (tumorigenic) and HB2 (non-tumorigenic) were seeded (1000 cells/well) using a multi-drop Combi (Thermo Fisher Scientific) on top of the compounds. Plates were then incubated at 37° C. and 5% CO2 for 48 hours upon which cell viability was assessed by adding CellTiter-Glo® (Promega) to the reaction. The luminescence signal was measured on a Pherastar FS multi-mode plate reader (BMG Labtech).

[8] = test system: Ostrinia nubilalis (European corn borer); assay: Efficacy of chlorpyrifos-ethyl with boronic acids on European corn borer on corn leaves; type: in vivo
Description: Treatments were performed by spraying a volume of mixture corresponding to 200 l/ha. 4 boxes/condition.
Drying 1 h at 20° C.; Deposit of three leaf fragments per box on water agar (4 box/condition); Infection of each leaf fragment with 4 Ostrinia nubilalis (12 larvae/box); Incubation 18° C./28° C. […] The percentage of mortality was calculated for each assessment times. Statistical analysis of the data was performed with XLSTAT® software (ANOVAs followed by Newman-Keuls tests with a threshold of 5%, see Table below).

[9] = test system: panel of 26 human serine or threonine proteases; assay: Protease selectivity panel, summary over the panel; type: biochemical; conditions: 100 μM compound
Description: Test compounds were dissolved in 100% DMSO to make 10 mM stock. Final compound concentration in assay is […]. Compounds were tested in duplicate wells at single concentration and the final concentration of DMSO in all assays was kept at 1%. Five reference compounds, AEBSF, Carfilzomib, Granzyme B Inhibitor II, Dec-RVKR-CMK, and Teneligliptin hydrobromide, were tested in an identical manner with 8 concentration points at 5× dilutions.

Structure (SMILES): OB(O)c1ccc(OCc2ccccc2F)c(Cl)c1 [Compound 5, 3-Chloro-4(2′-fluorobenzyloxy) phenylboronic acid]
- toxicity of the boronic acid derivative alone (in words) [1]: No significant toxicity
- insecticidal efficacy of CPE on addition of the compound (in words) [1]: increased
- Ki [2]: 420 nM
- Ki [3]: 40000 nM
- Ki [4]: 30 nM
- Ki [5]: 220 nM
- Ki [6]: > 100000 nM
- cellular toxicity [7]: low toxicity against HB-2

Structure (SMILES): CCOP(=S)(OCC)Oc1nc(Cl)c(Cl)cc1Cl [CPE, Chlorpyrifos-ethyl]
- Percentage of efficacy ([1]; 1 DAT, CPE 0.7): 38%
- Percentage of efficacy ([1]; 1 DAT, CPE 1.4): 41%
- Percentage of efficacy ([1]; 1 DAT, CPE 2.8 g a.i./ha): 32%
- Percentage of efficacy ([1]; 1 DAT, CPE 5.6 g a.i./ha): 36%
- Percentage of efficacy ([1]; 3 DAT, CPE 0.7): 20%
- Percentage of efficacy ([1]; 3 DAT, CPE 1.4): 27%
- Percentage of efficacy ([1]; 3 DAT, CPE 2.8 g a.i./ha): 26%
- Percentage of efficacy ([1]; 3 DAT, CPE 5.6 g a.i./ha): 48%
- Percentage of efficacy ([1]; 7 DAT, CPE 0.7): 25%
- Percentage of efficacy ([1]; 7 DAT, CPE 1.4): 25%
- Percentage of efficacy ([1]; 7 DAT, CPE 2.8 g a.i./ha): 23%
- Percentage of efficacy ([1]; 7 DAT, CPE 5.6 g a.i./ha): 67%
- Calibration results ([1]; 1 DAT, CPE 1.4): 33%
- Calibration results ([1]; 1 DAT, CPE 2.8): 31%
- Calibration results ([1]; 1 DAT, CPE 5.6): 67%
- Calibration results ([1]; 3 DAT, CPE 1.4): 51%
- Calibration results ([1]; 3 DAT, CPE 2.8): 79%
- Calibration results ([1]; 3 DAT, CPE 5.6): 98%
- Calibration results ([1]; 7 DAT, CPE 1.4): 51%
- Calibration results ([1]; 7 DAT, CPE 2.8): 99%
- Calibration results ([1]; 7 DAT, CPE 5.6): 100%
- Percentage of efficacy ([8]; CPE 2.5, 1 DAT, boronic acid where present 0.2 mg/ml): 0%
- Percentage of efficacy ([8]; CPE 2.5, 3 DAT, boronic acid where present 0.2 mg/ml): 0%
- Percentage of efficacy ([8]; CPE 2.5, 6 DAT, boronic acid where present 0.2 mg/ml): 26%
- Larvae number, mean ([8]; CPE 2.5 g a.i./ha, 1 DAT, boronic acid where present 0.2 mg/ml): 12
- Larvae number, mean ([8]; CPE 2.5 g a.i./ha, 3 DAT, boronic acid where present 0.2 mg/ml): 12
- Larvae number, mean ([8]; CPE 2.5 g a.i./ha, 6 DAT, boronic acid where present 0.2 mg/ml): 8
- Percentage of efficacy ([8]; CPE 6.24, 1 DAT, boronic acid where present 0.2 mg/ml): 11%
- Percentage of efficacy ([8]; CPE 6.24, 3 DAT, boronic acid where present 0.2 mg/ml): 16%
- Percentage of efficacy ([8]; CPE 6.24, 6 DAT, boronic acid where present 0.2 mg/ml): 63%
- Larvae number, mean ([8]; CPE 6.24 g a.i./ha, 1 DAT, boronic acid where present 0.2 mg/ml): 10.7
- Larvae number, mean ([8]; CPE 6.24 g a.i./ha, 3 DAT, boronic acid where present 0.2 mg/ml): 9.7
- Larvae number, mean ([8]; CPE 6.24 g a.i./ha, 6 DAT, boronic acid where present 0.2 mg/ml): 4
- Percentage of efficacy ([8]; CPE 15.6, 1 DAT, boronic acid where present 0.2 mg/ml): 40%
- Percentage of efficacy ([8]; CPE 15.6, 3 DAT, boronic acid where present 0.2 mg/ml): 39%
- Percentage of efficacy ([8]; CPE 15.6, 6 DAT, boronic acid where present 0.2 mg/ml): 67%
- Larvae number, mean ([8]; CPE 15.6 g a.i./ha, 1 DAT, boronic acid where present 0.2 mg/ml): 7.3
- Larvae number, mean ([8]; CPE 15.6 g a.i./ha, 3 DAT, boronic acid where present 0.2 mg/ml): 7
- Larvae number, mean ([8]; CPE 15.6 g a.i./ha, 6 DAT, boronic acid where present 0.2 mg/ml): 3.5
- Percentage of efficacy ([8]; CPE 39, 1 DAT, boronic acid where present 0.2 mg/ml): 72%
- Percentage of efficacy ([8]; CPE 39, 3 DAT, boronic acid where present 0.2 mg/ml): 83%
- Percentage of efficacy ([8]; CPE 39, 6 DAT, boronic acid where present 0.2 mg/ml): 88%
- Larvae number, mean ([8]; CPE 39 g a.i./ha, 1 DAT, boronic acid where present 0.2 mg/ml): 3.3
- Larvae number, mean ([8]; CPE 39 g a.i./ha, 3 DAT, boronic acid where present 0.2 mg/ml): 2
- Larvae number, mean ([8]; CPE 39 g a.i./ha, 6 DAT, boronic acid where present 0.2 mg/ml): 1.3

Structure (SMILES): Cc1ccc(B(O)O)cc1Br [Compound 1]
- Ki [5]: 216 nM
- Ki [6]: > 100000 nM

Structure (SMILES): OB(O)c1cc(Br)cc(N2CCCC2)c1 [Compound 3]
- Ki [2]: 4700 nM
- Ki [3]: 9900 nM
- Ki [4]: 790 nM
- Ki [5]: 60 nM
- Ki [6]: > 100000 nM
- inhibition across the panel of 26 human proteases (in words) [9]: only 3 of the 26 proteases were inhibited by more than 50%

Structure (SMILES): OB(O)c1cc(Br)cc(N2CCOCC2)c1 [Compound 3.1]
- Larvae number, mean ([8]; boronic acid alone 0.2 mg/ml, 1 DAT, 12 larvae/box): 12
- Larvae number, mean ([8]; boronic acid alone 0.2 mg/ml, 3 DAT, 12 larvae/box): 12
- Larvae number, mean ([8]; boronic acid alone 0.2 mg/ml, 6 DAT, 12 larvae/box): 8.3

Structure (SMILES): OB(O)c1cc(Br)cc(OCc2ccccc2)c1 [Compound 3.9]
- cellular toxicity [7]: do not exhibit any cellular toxicity up to 100 μM

Structure (SMILES): CC(C)Oc1cc(Br)cc(B(O)O)c1 [Compound 3.7, 3-Bromo-5-isopropoxyphenylboronic acid]
- toxicity of the boronic acid derivative alone (in words) [1]: No significant toxicity
- insecticidal efficacy of CPE on addition of the compound (in words) [1]: increased
- Ki [2]: 900 nM
- Ki [3]: 2600 nM
- Ki [4]: 330 nM

Structure (SMILES): OB(O)c1ccc2ccccc2c1 [Compound 4]
- Ki [5]: 104 nM
- Ki [6]: > 10000 nM

Structure (SMILES): Cc1ccc(B(O)O)cc1OCc1ccccc1 [Compound 2]
- Ki [2]: 2400 nM
- Ki [3]: 3100 nM
- Ki [4]: 170 nM
- Ki [5]: 380 nM
- Ki [6]: > 100000 nM
- cellular toxicity [7]: low toxicity against HB-2

Structure (SMILES): OB(O)c1cc(Br)cc(Oc2ccccc2)c1 [Compound 3.10, 3-Bromo-5-phenoxyfenylboronic acid]
- toxicity of the boronic acid derivative alone (in words) [1]: No significant toxicity
- insecticidal efficacy of CPE on addition of the compound (in words) [1]: increased
- cellular toxicity [7]: do not exhibit any cellular toxicity up to 100 μM
